Non-standard residues stand in square brackets, D forms with d. Residues, ends and D or L forms follow the SMILES beside them. *: point of attachment. Phenylacetyl(2,3,4,5,6-F5) = O=C(Cc1c(F)c(F)c(F)c(F)c1F)*; Phe(F5) = N[C@@H](Cc1c(F)c(F)c(F)c(F)c1F)C(=O)O; Phe(4-Cl) = N[C@@H](Cc1ccc(Cl)cc1)C(=O)O; hArg = N=C(N)NCCCC[C@H](N)C(=O)O; 12Ado = NCCCCCCCCCCCC(=O)O; Nle = CCCC[C@H](N)C(=O)O; Orn = NCCC[C@H](N)C(=O)O; Abu = CC[C@H](N)C(=O)O; PhAc = O=C(Cc1ccccc1)*
How the values were obtained:
NCI-N87 cells = test: In vitro cell viability (CellTiter 96), stomach cancer N87; assay type: cell-based, human; conditions: 5 μM, 72 h
Experimental: (§1) The inhibitory effects of the various synthesized GHRH antagonists were tested in cell proliferation assays in various human cancer cell lines including stomach cancer (KATOIII, N87), colon cancer (HT-29), urothelial cancer (J82, RT4), pancreatic cancer (PANC-1, CFPAC-1), prostatic cancer (PC3), breast cancer (MX-1, HCC1806), ovarian cancer (SK-OV-3, OVCAR-3) and lung cancer (HCC827, H460).
(§2) Cell culture. Human cancer cell lines including pancreatic (PANC-1 and CFPAC-1), lung (HCC827 and H460), stomach (NCI-N87 and KATOIII), urothelial (J82, RT4), prostatic (PC3), breast (MX-1 and HCC 1806), colorectal (HT-29), and ovarian (SK-OV-3 and OVCAR-3) were obtained from the American Type Culture Collection (ATCC) and cultured at 37° C. in a humidified 95% air/5% CO2 atmosphere in the medium recommended by ATCC.
(§3) In vitro cell viability. Cell viability was analyzed as follows: cancer cells including pancreatic (PANC-1 and CFPAC-1), lung (HCC827 and H460), stomach (NCI-N87 and KATOIII), urothelial (J82, RT4), prostatic (PC3) and breast (MX-1 and HCC 1806), colorectal (HT-29) and ovarian (SK-OV-3 and OVCAR-3) were grown on 96 well plates to ˜60% confluence, the cells were starved for 24 h in culture medium containing 0.5% FBS. Cells were then treated with GHRH antagonists MIA602 AVR compounds at concentrations of 1, 2.5 or 5 μM, or vehicle (0.1% DMSO) in quintuplicates for 72 hours. The medium was replaced every 48 hours. Cell viability was measured using CellTiter 96 aqueous one solution kit (Promega). Inhibitory effects of tested AVR compounds in comparison to that of MIA602 are presented as inhibitory potency.
(§4) Inhibitory effects of selected AVR compounds in comparison to that of MIA602 are presented as inhibitory potency (e.g., percentage of inhibition). […] The cell lines tested including lung cancer HCC827 (FIG. 2A), pancreatic cancer CFPAC-1 (FIG. 2B), stomach cancer N87 (FIG. 2C), colon cancer HT-29 (FIG. 2D), breast cancers MX-1 and HCC1806 (FIGS. 2E, F). Based on the results of cell proliferation assay after cancer cells were treated with antagonist at concentration of 5 μM for 72H, the relative inhibitory potency of AVR antagonists in comparison to MIA-602 is summarized in Table 3 A and B. Over 60 AVR compounds were tested in 12 cancer cell lines.
(§5) Based on the results of cell proliferation assay after cancer cells were treated with antagonist at concentration of 5 µM for 72H, * at concentration of 2 µM for 72 H.

KATOIII cells = test: In vitro cell viability, stomach cancer KATOIII; assay type: cell-based, human; conditions: 5 μM, 72 h; relative to MIA602 = 1; Table 3A
Experimental: as §1, §2, §3, §4

HCC827 cells = test: In vitro cell viability, lung cancer HCC827; assay type: cell-based, human; conditions: 5 μM, 72 h; relative to MIA602 = 1; Table 3A
Experimental: as §1, §2, §3, §4, §5

CFPAC-1 cells = test: In vitro cell viability, pancreatic cancer CFPAC-1; assay type: cell-based, human; conditions: 5 μM, 72 h; relative to MIA602 = 1; Table 3A
Experimental: as §1, §2, §3, §4, §5

PANC-1 cells = test: In vitro cell viability, pancreatic cancer PANC-1; assay type: cell-based, human; conditions: 5 μM, 72 h; relative to MIA602 = 1; Table 3A
Experimental: as §1, §2, §3, §4

J82 cells = test: In vitro cell viability, urothelial cancer J82; assay type: cell-based, human; conditions: 5 μM, 72 h; relative to MIA602 = 1; Table 3A
Experimental: as §1, §2, §3, §4

PC3 cells = test: In vitro cell viability, prostatic cancer PC3; assay type: cell-based, human; conditions: 5 μM, 72 h; relative to MIA602 = 1; Table 3A
Experimental: as §1, §2, §3
Inhibitory effects of selected AVR compounds in comparison to that of MIA602 are presented as inhibitory potency (e.g., percentage of inhibition). […] The cell lines tested including lung cancer HCC827 (FIG. 2A), pancreatic cancer CFPAC-1 (FIG. 2B), stomach cancer N87 (FIG. 2C), colon cancer HT-29 (FIG. 2D), breast cancers MX-1 and HCC1806 (FIGS. 2E, F). […]

HCC1806 cells = test: In vitro cell viability, breast cancer HCC1806; assay type: cell-based, human; conditions: 5 μM, 72 h; relative to MIA602 = 1; Table 3A
Experimental: as §1, §2, §3, §4, §5

MX-1 cells = test: In vitro cell viability, breast cancer MX-1; assay type: cell-based, human; conditions: 5 μM, 72 h; relative to MIA602 = 1; Table 3A
Experimental: as §1, §2, §3, §4, §5

NCI-N87 xenograft = test: Xenograft tumor growth in nude mice, stomach cancer N87; assay type: in vivo; conditions: Panel D, 10 weeks, 2 μg/day s.c.
Experimental: The peptides' activity was compared with GHRH antagonist MIA-602. All statistical analyzses were performed from comparing GHRA antagonists to non-treated tumor (control).
Peptides and chemicals. GHRH antagonists MIA-602 and AVR-GHRH antagonists (see Table 2 above) were synthesized by solid phase methods and purified by HPLC. The peptides were dissolved in DMSO and further diluted in 10% 1, 2-propanediol. The final concentration of peptides was 50 µg/ml in 10% 1, 2-propanediol containing 0.1% of DMSO.
Cell culture. Human cancer cell lines including pancreatic (PANC-1 and CFPAC-1), lung (HCC827 and H460), stomach (NCI-N87), prostate (PC3), brest (MX-1 and HCC-1806), colorectal (HT-29), and ovarian (SK-OV-3 and OVCAR-3) were obtained from the American Type Culture Collection (ATCC) and cultured at 37° C. in a humidified 95% air/5% CO2 atmosphere in the medium recommended by ATCC.
Xenograft models of human cancers in nude mice. Female athymic (NCr nu/nu) nude mice, 5-to 6-weeks-old, obtained from the Envigo labs (Tampa, FL), were housed in laminar airflow cabinets under pathogen-free conditions with a 12-h light/12-h dark schedule, and were fed autoclaved standard chow and water. To generate mice with xenografted tumors, tumor xenografts were initiated by subcutaneous (s.c.) injection of […] human cancer cells into female nude mice. After about 4 weeks the resulting tumors were dissected and collected after removing necrosis tissues. The tumors were then cut into particles with size of ˜3 mm3 and transplanted s.c. by trocar needle into experimental animals. When tumors grew to the size of 50-60 mm3 (by volume), […] of 5 μg of GHRH antagonists MIA-602 or AVR-compounds (2-10 μg as indicated), or vehicle solutions (0.1% DMSO in 10% 1, 2-propanediol) respectively. Tumor sizes were measured weekly.
Statistical analysis. One-way ANOVA followed by Bonferroni comparison were performed. Data are expressed as Mean±SEM. To determine statistical significance between animal groups, two-tailed Student's t-test was conducted. Differences were considered significant when p<0.05.
Results. […] FIG. 1A-N represents in vivo inhibition of tumor growth during the treatment with GHRH antagonist MIA-602 and selected AVR antagonists in nude mice xenografted with various human tumors including pancreatic cancer PANC-1 (FIG. 1A) and CFPAC-1 (FIG. 1I); lung cancer HCC827 (FIGS. 1B, C) and H460 (FIG. 1H); stomach cancer N87 (FIGS. 1D-F); colon cancer HT-29 (FIG. 1G); breast cancer MX-1 and HCC-1806 (FIGS. 1J, K); ovarian cancer SK-OV-3 and OVACAR-3 (FIGS. 1L, M) and prostate cancer PC3 (FIG. 1N). See also Table 5.

Compound | Relative inhibitory potency, Stomach N87 (NCI-N87 cells; relative to MIA602 = 1, Table 3A) | Relative inhibitory potency, Stomach KATOIII (KATOIII cells) | Relative inhibitory potency, Lung HCC827 (HCC827 cells) | Relative inhibitory potency, Pancreatic CFPAC-1 (CFPAC-1 cells) | Relative inhibitory potency, Pancreatic Panc-1 (PANC-1 cells) | Relative inhibitory potency, Urothelial J82 (J82 cells) | Relative inhibitory potency, Prostatic PC3 (PC3 cells) | Relative inhibitory potency, Breast HCC1806 (HCC1806 cells) | Relative inhibitory potency, Breast MX-1 (MX-1 cells) | In vitro relative inhibitory potency in comparison to MIA-602, NCI-N87 (NCI-N87 cells; Table 3B) | Tumor Growth % (NCI-N87 xenograft) [%]
CCCC[C@H](NC(=O)[C@@H](NC(=O)[C@H](CC(=O)O)NC(=O)[C@H](CCC(N)=O)NC(=O)[C@H](CC(C)C)NC(=O)[C@H](CC(C)C)NC(=O)[C@H](CCCN)NC(=O)[C@H](Cc1c[nH]cn1)NC(=O)[C@H](C)NC(=O)[C@H](CO)NC(=O)[C@H](CC(C)C)NC(=O)[C@H](CCC(N)=O)NC(=O)[C@H](CC)NC(=O)[C@H](CC(C)C)NC(=O)[C@@H](NC(=O)[C@H](CCCCN)NC(=O)[C@H](CCCNC(=N)N)NC(=O)[C@H](Cc1c(F)c(F)c(F)c(F)c1F)NC(=O)[C@H](CCCNC(=N)N)NC(=O)[C@H](C)NC(=O)[C@@H](NC(=O)[C@H](Cc1ccc(Cl)cc1)NC(=O)[C@@H](NC(=O)[C@H](C)NC(=O)[C@H](CC(=O)O)NC(=O)[C@@H](CCCNC(=N)N)NC(=O)[C@H](Cc1ccc(O)cc1)NC(=O)CCCCCCCCCCCNC(=O)Cc1ccccc1)[C@@H](C)CC)[C@@H](C)O)C(C)C)[C@@H](C)CC)C(=O)N[C@H](CCCNC(=N)N)C(=O)N[C@@H](CCCCNC(=N)N)C(N)=O [AVR-116, PhAC-Ada-Tyr-DArg-Asp-Ala-Ile-Cpa-Thr-Ala-Arg-5FPhe-Arg-Lys-Val-Leu-Abu-Gln-Leu-Ser-Ala-His-Orn-Leu-Leu-Gln-Asp-Ile-Nle-DArg-Har-NH2] ({PhAc-12Ado}-Y[dR]DAI[Phe(4-Cl)]TAR[Phe(F5)]RKVL[Abu]QLSAH[Orn]LLQDI[Nle][dR][hArg]-NH2) | 2.484 | 1.202 | 2.470 | 1.445 | 1.208 | 3.034 |  |  |  |  | 
CCCC[C@H](NC(=O)[C@@H](NC(=O)[C@H](CC(=O)O)NC(=O)[C@H](CCC(N)=O)NC(=O)[C@H](CC(C)C)NC(=O)[C@H](CC(C)C)NC(=O)[C@H](CCCCN)NC(=O)[C@H](CCCNC(=N)N)NC(=O)[C@H](C)NC(=O)[C@H](CO)NC(=O)[C@H](CC(C)C)NC(=O)[C@H](CCC(N)=O)NC(=O)[C@H](CC)NC(=O)[C@H](CC(C)C)NC(=O)[C@@H](NC(=O)[C@H](CCCCN)NC(=O)[C@H](CCCNC(=N)N)NC(=O)[C@H](Cc1ccc(O)cc1)NC(=O)[C@H](CCCNC(=N)N)NC(=O)[C@H](C)NC(=O)[C@@H](NC(=O)[C@H](Cc1ccc(Cl)cc1)NC(=O)[C@@H](NC(=O)[C@H](C)NC(=O)[C@H](CC(=O)O)NC(=O)[C@@H](CCCNC(=N)N)NC(=O)[C@H](Cc1ccc(O)cc1)NC(=O)CCCCCCCCCCCNC(=O)Cc1ccccc1)[C@@H](C)CC)[C@@H](C)O)C(C)C)[C@@H](C)CC)C(=O)N[C@H](CCCNC(=N)N)C(=O)N[C@@H](CCCCNC(=N)N)C(N)=O [AVR-107, PhAC-Ada-Tyr-DArg-Asp-Ala-Ile-Cpa-Thr-Ala-Arg-Tyr-Arg-Lys-Val-Leu-Abu-Gln-Leu-Ser-Ala-Arg-Lys-Leu-Leu-Gln-Asp-Ile-Nle-DArg-Har-NH2] ({PhAc-12Ado}-Y[dR]DAI[Phe(4-Cl)]TARYRKVL[Abu]QLSARKLLQDI[Nle][dR][hArg]-NH2) |  | 1.295 |  | 1.080 | 1.160 |  | 0.800 | 0.950 | 1.010 |  | 
CCCC[C@H](NC(=O)[C@@H](NC(=O)[C@H](CC(=O)O)NC(=O)[C@H](CCC(N)=O)NC(=O)[C@H](CC(C)C)NC(=O)[C@H](CC(C)C)NC(=O)[C@H](CCCCN)NC(=O)[C@H](CCCNC(=N)N)NC(=O)[C@H](C)NC(=O)[C@H](CO)NC(=O)[C@H](CC(C)C)NC(=O)[C@H](CCC(N)=O)NC(=O)[C@H](CC)NC(=O)[C@H](CC(C)C)NC(=O)[C@@H](NC(=O)[C@H](CCCCN)NC(=O)[C@H](CCCNC(=N)N)NC(=O)[C@H](Cc1ccc(OC)cc1)NC(=O)[C@H](CCCCNC(=N)N)NC(=O)[C@H](CC(N)=O)NC(=O)[C@@H](NC(=O)[C@H](Cc1ccc(Cl)cc1)NC(=O)[C@@H](NC(=O)[C@H](C)NC(=O)[C@H](CC(=O)O)NC(=O)[C@@H](CCCNC(=N)N)NC(=O)[C@H](Cc1ccc(O)cc1)NC(=O)CCCCCCCCCCCNC(=O)Cc1c(F)c(F)c(F)c(F)c1F)[C@@H](C)CC)[C@@H](C)O)C(C)C)[C@@H](C)CC)C(=O)N[C@H](CCCNC(=N)N)C(=O)N[C@@H](CCCCNC(=N)N)C(=O)NCCCCCCCCCCCC(N)=O [AVR-333, 5FPhAC-Ada-Tyr-DArg-Asp-Ala-Ile-Cpa-Thr-Asn-Har-Tyr(Me)-Arg-Lys-Val-Leu-Abu-Gln-Leu-Ser-Ala-Arg-Lys-Leu-Leu-Gln-Asp-Ile-Nle-DArg-Har-Ada-NH2] ({Phenylacetyl(2,3,4,5,6-F5)-12Ado}-Y[dR]DAI[Phe(4-Cl)]TN[hArg]Y(Me)RKVL[Abu]QLSARKLLQDI[Nle][dR][hArg][12Ado]-NH2) |  |  |  |  |  |  |  |  |  | 1.4 | 454.00

— patent publication US11993640B2, “Treating inflammatory lung disease” (United States Government as represented by the Department …, priority 2019, dated 2024)
